Key:
EGFR (human) [1] = target: EGFR (human) (UniProt P00533); details: a549
EGFR (human) [2] = target: EGFR (human) (UniProt P00533); details: a431
EGFR (human) [3] = target: EGFR (human) (UniProt P00533); details: snu638
EGFR (human) [4] = target: EGFR (human) (UniProt P00533)

Chain of EGFR (human) (P00533 whole entry, looked up): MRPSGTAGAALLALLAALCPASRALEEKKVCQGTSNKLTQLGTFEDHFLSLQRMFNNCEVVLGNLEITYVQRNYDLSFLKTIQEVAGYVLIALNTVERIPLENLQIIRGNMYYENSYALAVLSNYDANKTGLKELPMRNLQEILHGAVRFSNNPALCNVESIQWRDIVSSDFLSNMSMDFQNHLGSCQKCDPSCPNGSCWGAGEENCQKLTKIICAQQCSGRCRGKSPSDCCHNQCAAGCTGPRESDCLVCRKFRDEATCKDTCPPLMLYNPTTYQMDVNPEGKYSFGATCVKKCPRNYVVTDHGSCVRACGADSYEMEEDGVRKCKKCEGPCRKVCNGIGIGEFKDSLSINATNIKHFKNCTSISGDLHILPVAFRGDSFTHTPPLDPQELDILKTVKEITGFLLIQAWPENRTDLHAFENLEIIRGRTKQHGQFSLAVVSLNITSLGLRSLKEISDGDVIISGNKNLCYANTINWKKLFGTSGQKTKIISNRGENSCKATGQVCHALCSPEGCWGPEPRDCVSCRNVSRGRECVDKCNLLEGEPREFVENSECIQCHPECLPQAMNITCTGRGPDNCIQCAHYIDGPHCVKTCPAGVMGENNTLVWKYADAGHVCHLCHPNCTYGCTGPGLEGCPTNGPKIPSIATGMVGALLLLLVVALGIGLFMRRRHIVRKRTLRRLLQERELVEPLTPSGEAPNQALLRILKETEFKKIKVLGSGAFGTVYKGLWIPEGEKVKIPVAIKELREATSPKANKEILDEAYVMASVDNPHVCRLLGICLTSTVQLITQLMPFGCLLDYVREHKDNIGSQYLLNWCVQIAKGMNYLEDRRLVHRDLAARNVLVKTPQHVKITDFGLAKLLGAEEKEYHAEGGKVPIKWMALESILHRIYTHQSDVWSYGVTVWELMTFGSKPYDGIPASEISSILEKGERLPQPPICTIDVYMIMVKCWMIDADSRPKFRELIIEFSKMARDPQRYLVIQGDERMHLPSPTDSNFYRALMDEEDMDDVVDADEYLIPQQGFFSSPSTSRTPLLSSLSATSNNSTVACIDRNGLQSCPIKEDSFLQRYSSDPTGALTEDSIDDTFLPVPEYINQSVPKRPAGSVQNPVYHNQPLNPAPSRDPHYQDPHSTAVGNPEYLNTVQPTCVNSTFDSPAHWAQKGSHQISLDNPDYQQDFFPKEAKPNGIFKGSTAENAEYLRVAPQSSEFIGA

Q: With `FC(F)(F)c1cccc(Nc2ncnc3cc4c(cc23)OCCO4)c1` as the compound, how does the GI50 (EGFR (human) [1]) read?
A: 2240 nM

Q: And the GI50 (EGFR (human) [2])?
A: 140 nM

Q: What about the GI50 (EGFR (human) [3]) of the same compound?
A: 2750 nM

Q: Which results are given for `Ic1cccc(Nc2ncnc3cc4c(cc23)OCCO4)c1`?
A: GI50 (EGFR (human) [1]): 5620 nM; GI50 (EGFR (human) [2]): 1550 nM; IC50 (EGFR (human) [4]): 63 nM; GI50 (EGFR (human) [3]): 6170 nM

Q: For `c1ccc(Nc2ncnc3cc4c(cc23)OCCO4)cc1`, which GI50 (EGFR (human) [1]) is on record?
A: 45700 nM

Q: And the GI50 (EGFR (human) [2])?
A: 3800 nM

Q: What about the GI50 (EGFR (human) [3]) of the same compound?
A: 55000 nM

Q: How did the GI50 (EGFR (human) [1]) turn out when `Clc1cccc(Nc2ncnc3cc4c(cc23)OCCO4)c1` was run?
A: 4270 nM

Q: What about the GI50 (EGFR (human) [2]) of the same compound?
A: 190 nM

Q: What about the IC50 (EGFR (human) [4]) of the same compound?
A: 8.3 nM

Q: And the GI50 (EGFR (human) [3])?
A: 4680 nM

Q: What does the source list for `Fc1ccc(Nc2ncnc3cc4c(cc23)OCCO4)cc1`?
A: GI50 (EGFR (human) [1]): 40700 nM; GI50 (EGFR (human) [2]): 1290 nM; IC50 (EGFR (human) [4]): 77.6 nM; GI50 (EGFR (human) [3]): 49000 nM

Q: For `Fc1cc(Nc2ncnc3cc4c(cc23)OCCO4)ccc1Cl`, which GI50 (EGFR (human) [1]) is on record?
A: 75900 nM

Q: And the GI50 (EGFR (human) [2])?
A: 490 nM

Q: What about the GI50 (EGFR (human) [3]) of the same compound?
A: > 100000 nM

Q: Which GI50 (EGFR (human) [1]) does the source give for `Cc1cc(C)cc(Nc2ncnc3cc4c(cc23)OCCO4)c1` here?
A: 230 nM

Q: What about the GI50 (EGFR (human) [2]) of the same compound?
A: 120 nM

Q: What about the GI50 (EGFR (human) [3]) of the same compound?
A: 170 nM

Q: With `Brc1cccc(Nc2ncnc3cc4c(cc23)OCCO4)c1` as the compound, how does the GI50 (EGFR (human) [1]) read?
A: 4370 nM

Q: And the GI50 (EGFR (human) [2])?
A: 200 nM

Q: What about the IC50 (EGFR (human) [4]) of the same compound?
A: 17.8 nM

Q: And the GI50 (EGFR (human) [3])?
A: 5750 nM

From the Kinase Knowledgebase extract (Sharma et al. 2016)
